Reference: patent US20110262360A1, “Compositions Comprising Enzyme-Cleavable Phenol-Modified Opioid Prodrugs and Inhibitors Thereof” (priority 2010, published 2011)
Values joined by “and” are separate entries in the source; they are usually repeats but may differ in a detail not shown here. Identical values can stand only once. “Also recorded” adds a separate entry of the source. Like-named read-outs stand apart in the source and are kept apart here.

Columns and labels:
[1] = Oral administration of Compound PC-1 and SBTI trypsin inhibitor to rats: hydromorphone in blood; settings: for Cmax of hydromorphone in rat blood: PC-1 20 mg/kg PO
[2] = Oral administration of Compound PC-1 and SBTI in the presence of ovalbumin to rats: hydromorphone in plasma; settings: for Cmax of hydromorphone in rat plasma: PC-1 20 mg/kg PO; for plasma Tmax of hydromorphone: rats; for Effect on Compound PC-1's ability to release hydromorphone: rats PO, PC-1 20 mg/kg with ovalbumin and/or SBTI
Procedure: In an effort to understand the role of SBTI, ovalbumin was used as a non-trypsin inhibitor protein control. Albumin from chicken egg white (ovalbumin) (Catalog No. A7641, Grade VII, lyophilized powder, Sigma-Aldrich) was dissolved in saline.

[3] = Oral administration of Compound PC-1 and BBSI inhibitor to rats: hydromorphone in blood; settings: PC-1 20 mg/kg PO
[4] = target: T1, trypsin from bovine pancreas (Bos taurus, UniProt P00760); test: In vitro trypsin conversion of prodrugs to hydromorphone and inhibition by trypsin inhibitor
T1 sequence (P00760 24-246): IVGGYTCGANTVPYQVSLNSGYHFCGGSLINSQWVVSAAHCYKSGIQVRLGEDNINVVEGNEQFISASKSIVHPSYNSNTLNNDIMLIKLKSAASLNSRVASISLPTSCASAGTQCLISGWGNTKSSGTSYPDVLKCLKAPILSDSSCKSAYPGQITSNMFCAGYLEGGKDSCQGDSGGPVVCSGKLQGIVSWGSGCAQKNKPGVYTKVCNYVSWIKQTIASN
Procedure: The reactions were conducted at 37° C. for 24 hr. Samples were collected at specified time points, transferred into 0.5% formic acid in acetonitrile to stop trypsin activity and stored at less than −70° C. until analysis by LC-MS/MS.
The results are expressed as half-life of prodrug when exposed to trypsin (i.e., Prodrug trypsin half-life) in hours and rate of formation of HM per unit of trypsin.

[5] = Oral administration of Compound PC-2 and SBTI to rats: hydromorphone in plasma; settings: for Cmax of hydromorphone in rat plasma: PC-2 20 mg/kg PO
[6] = for Cmax of hydromorphone in rat plasma / Tmax of hydromorphone in rat plasma: PC-3 20 mg/kg PO
[7] = PC-3 20 mg/kg PO
[8] = for Cmax of HM in rat plasma / Tmax of HM in rat plasma: PC-4 20 mg/kg PO
[9] = PC-4 20 mg/kg PO
trypsin = target: T2, trypsin (Bos taurus, UniProt P00760); test: In vitro IC50, modified trypsin assay; format: biochemical
T2 sequence (P00760 24-246): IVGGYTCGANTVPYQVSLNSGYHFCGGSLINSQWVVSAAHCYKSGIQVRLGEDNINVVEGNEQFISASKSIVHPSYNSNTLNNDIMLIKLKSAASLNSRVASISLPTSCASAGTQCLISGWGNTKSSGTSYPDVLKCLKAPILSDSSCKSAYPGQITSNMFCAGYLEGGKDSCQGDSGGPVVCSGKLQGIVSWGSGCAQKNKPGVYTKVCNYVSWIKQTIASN

[10] = No trypsin inhibitor, 0.761 mM prodrug, 37° C., Tris pH 8

In the case of `CC(=O)NC(CCCNC(=N)N)C(=O)NCCN(C)C(=O)Oc1ccc2c3c1OC1C(=O)CCC4C(C2)N(C)CCC314` (stereo not drawn) [Compound PC-1, Hydromorphone 3-(N-methyl-N-(2-N′-acetylarginylamino)) ethylcarbamate], the “Cmax of hydromorphone in rat blood” value ([1]; SBTI 0 mg/kg) is reported as 16.5 ± 5.3 ng/mL, the “Cmax of hydromorphone in rat blood” value ([1]; SBTI 10 mg/kg) is reported as 8.9 ± 1.8 ng/mL and the “Cmax of hydromorphone in rat blood” value ([1]; SBTI 100 mg/kg) is reported as 6.0 ± 4.0 ng/mL. The “Cmax of hydromorphone in rat blood” value ([1]; SBTI 500 mg/kg) was <5 ng/mL, the “Cmax of hydromorphone in rat blood” value ([1]; SBTI 1000 mg/kg) was <5 ng/mL and the “Cmax of hydromorphone in rat plasma” value ([2]; OVA 0 mg/kg, SBTI 0 mg/kg) was 13.3 ± 3.7 ng/mL. The “Cmax of hydromorphone in rat plasma” value ([2]; OVA 20 mg/kg, SBTI 0 mg/kg) was 11.0 ± 5.4 ng/mL, the “Cmax of hydromorphone in rat plasma” value ([2]; OVA 100 mg/kg, SBTI 0 mg/kg) was 9.7 ± 3.1 ng/mL and the “Cmax of hydromorphone in rat plasma” value ([2]; OVA 500 mg/kg, SBTI 0 mg/kg) was 11.6 ± 2.5 ng/mL. The “Cmax of hydromorphone in rat plasma” value ([2]; OVA 500 mg/kg, SBTI 500 mg/kg) was 1.9 ± 0.9 ng/mL, the “Cmax of hydromorphone in rat plasma” value ([2]; OVA 1000 mg/kg, SBTI 0 mg/kg) was 10.3 ± 3.5 ng/mL and the “plasma Tmax of hydromorphone” value ([2]; 20 mg/kg Compound PC-1 alone) was 2.3 h. For the same molecule, the “plasma Tmax of hydromorphone” value ([2]; 20 mg/kg Compound PC-1 with 500 mg/kg OVA and 500 mg/kg SBTI) was 8.0 h, the “Cmax of hydromorphone in rat blood” value ([3]; BBSI 0 mg/kg, n = 4) was 16.5 ± 5.3 ng/mL and the “Cmax of rat not included in n = 3 analysis” value ([3]; BBSI 100 mg/kg, individual rat, blood) was 43 ng/mL. For the same molecule, the “Cmax of hydromorphone in rat blood” value ([3]; BBSI 100 mg/kg, n = 3 (3 of the 4 rats)) was 10.6 ± 5.9 ng/mL, the “Cmax of hydromorphone in rat blood” value ([3]; BBSI 100 mg/kg, n = 4) was 18.7 ± 17.0 ng/mL and the “Cmax range of other rats” value ([3]; BBSI 100 mg/kg, the 3 other rats, blood) was 6.8 to 17 ng/mL. For the same molecule, the “Rate of HM formation, umols/h/umol trypsin Average ± sd” value [4, 10] was 230 ± 8 umols/h/umol trypsin.

With `CN(CCNC(=O)[C@@H](N)CCCNC(=N)N)C(=O)Oc1ccc2c3c1OC1C(=O)CCC4C(C2)N(C)CCC314` (stereo partly drawn) [Compound PC-2, [2-((S)-2-amino-5-guanidino-pentanoylamino)-ethyl]-methyl-carbamic acid hydromorphyl ester] the “Cmax of hydromorphone in rat plasma” value ([5]; SBTI 0 mg/kg) was 14.2 ± 2.6 ng/mL and the “Cmax of hydromorphone in rat plasma” value ([5]; SBTI 500 mg/kg) was 7.3 ± 3.5 ng/mL.

With `CC(=O)N[C@@H](CCCCN)C(=O)NCCN(C)C(=O)Oc1ccc2c3c1OC1C(=O)CCC4C(C2)N(C)CCC314` (stereo partly drawn) [Compound PC-3, (S)-2-Acetylamino-6-amino-hexanoic acid (2-methylamino-ethyl)-amide hydromorphone ester] the “Cmax of hydromorphone in rat plasma” value ([6]; SBTI 0 mg/kg) was 9.0 ± 3.1 ng/mL, the “Tmax of hydromorphone in rat plasma” value ([6]; SBTI 0 mg/kg) was 2.3 h and the “Cmax of hydromorphone in rat plasma” value ([6]; SBTI 500 mg/kg) was 2.3 ± 1.7 ng/mL. The “Tmax of hydromorphone in rat plasma” value ([6]; SBTI 500 mg/kg) was 7.3 h, the “Cmax of HM in rat plasma” value ([7]; Compound 101 0 mg/kg) was 9.0 ± 3.1 ng/mL and the “Tmax of HM in rat plasma” value ([7]; Compound 101 0 mg/kg) was 2.3 h. For the same molecule, the “Cmax of HM in rat plasma” value ([7]; Compound 101 10 mg/kg) was 3.8 ± 2.9 ng/mL and the “Tmax of HM in rat plasma” value ([7]; Compound 101 10 mg/kg) was 3.5 h.

For `CCN(CCNC(=O)[C@H](CCCNC(=N)N)NC(C)=O)C(=O)Oc1ccc2c3c1OC1C(=O)CCC4C(C2)N(C)CCC314` (stereo partly drawn) [Compound PC-4, [2-((S)-2-Acetylamino-5-guanidino-pentanoylamino)-ethyl]-ethyl-carbamic acid hydromorphone ester], the “Cmax of HM in rat plasma” value ([8]; SBTI 0 mg/kg, n = 7) was 7.7 ± 2.3 ng/mL, the “Tmax of HM in rat plasma” value ([8]; SBTI 0 mg/kg, n = 7) was 2.3 h and the “Cmax of HM in rat plasma” value ([8]; SBTI 500 mg/kg, n = 4) was 7.5 ± 2.1 ng/mL. For the same molecule, the “Tmax of HM in rat plasma” value ([8]; SBTI 500 mg/kg, n = 4) was 6.5 h, the “Cmax of HM in rat plasma” value ([9]; Compound 101 0 mg/kg, n = 7) was 7.7 ± 2.3 ng/mL and the “Tmax of HM in rat plasma” value ([9]; Compound 101 0 mg/kg, n = 7) was 2.3 h. The “Cmax of HM in rat plasma” value ([9]; Compound 101 10 mg/kg, n = 4) was 4.8 ± 1.4 ng/mL, the “Tmax of HM in rat plasma” value ([9]; Compound 101 10 mg/kg, n = 4) was 6.0 h and the “Rate of HM formation, umols/h/umol trypsin Average ± sd” value [4, 10] was 322 umols/h/umol trypsin and 243 ± 1 umols/h/umol trypsin. For the same molecule, the “Rate of HM formation, umols/h/umol trypsin Average ± sd” value ([4]; With trypsin inhibitor 3,089 uM Compound 109) was 3.27 ± 1.87 umols/h/umol trypsin.

In the case of `CCN(CCNC(=O)[C@H](CCCCN)NC(=O)CC(=O)O)C(=O)Oc1ccc2c3c1O[C@H]1C(=O)CC[C@H]4[C@@H](C2)N(C)CC[C@]314` [Compound PC-5, [2-((S)-2-malonylamino-4-amino-pentanoylamino)-ethyl]-ethyl-carbamic acid hydromorphone ester], the “Rate of HM formation, umols/h/umol trypsin Average ± sd” value [4, 10] is reported as 106 ± 2 umols/h/umol trypsin.

For `CCN(CCNC(=O)C(CCCNC(=N)N)NC(=O)CC(=O)O)C(=O)Oc1ccc2c3c1OC1C(=O)CCC4C(C2)N(C)CCC314` (stereo not drawn) [Compound PC-6, [2-(2-Malonyl-5-guanidino-pentanoylamino)-ethyl]-ethyl-carbamic acid hydromorphone ester], the “Rate of HM formation, umols/h/umol trypsin Average ± sd” value [4, 10] was 262 ± 11 umols/h/umol trypsin.

B1: ovalbumin: Albumin from chicken egg white, used as a non-trypsin inhibitor protein control (protein, UniProt P01012 2-386, looked up)
Ovalbumin: GSIGAASMEFCFDVFKELKVHHANENIFYCPIAIMSALAMVYLGAKDSTRTQINKVVRFDKLPGFGDSIEAQCGTSVNVHSSLRDILNQITKPNDVYSFSLASRLYAEERYPILPEYLQCVKELYRGGLEPINFQTAADQARELINSWVESQTNGIIRNVLQPSSVDSQTAMVLVNAIVFKGLWEKAFKDEDTQAMPFRVTEQESKPVQMMYQIGLFRVASMASEKMKILELPFASGTMSMLVLLPDEVSGLEQLESIINFEKLTEWTSSNVMEERKIKVYLPRMKMEEKYNLTSVLMAMGITDVFSSSANLSGISSAESLKISQAVHAAHAEINEAGREVVGSAEAGVDAASVSEEFRADHPFLFCIKHIATNAVLFFGRCVSP
In the case of B1, the “Effect on Compound PC-1's ability to release hydromorphone” value [2] is reported as “does not significantly affect Compound PC-1's ability to release hydromorphone”.

B2: SBTI: trypsin inhibitor from Glycine max (soybean) (Catalog No. 93620, ˜10,000 units per mg, Sigma-Aldrich) (protein, UniProt P01070 25-205, looked up)
Trypsin inhibitor A: DFVLDNEGNPLENGGTYYILSDITAFGGIRAAPTGNERCPLTVVQSRNELDKGIGTIISSPYRIRFIAEGHPLSLKFDSFAVIMLCVGIPTEWSVVEDLPEGPAVKIGENKDAMDGWFRLERVSDDEFNNYKLVFCPQQAEDDKCGDIGISIDHDDGTRRLVVSKNKPLVVQFQKLDKESL
In the case of B2, the “Effect of SBTI on Compound PC-1's ability to release hydromorphone” value ([1]; rats PO, PC-1 20 mg/kg with 10, 100, 500 or 1000 mg/kg SBTI) is reported as “attenuates Compound PC-1's ability to release hydromorphone in a dose-dependent manner that can approach approximately 100% attenuation at higher SBTI concentrations; also recorded: suppresses Cmaxand delays Tmax”, the “Effect on Compound PC-1's ability to release hydromorphone” value [2] is reported as “suppresses Cmaxand delays Tmax of such hydromorphone in plasma, even in the presence of ovalbumin; also recorded: acting specifically by inhibiting trypsin rather than in a non-specific manner” and the “Effect of SBTI on Compound PC-2's ability to release hydromorphone” value ([5]; rats PO, PC-2 20 mg/kg with 500 mg/kg SBTI) is reported as “attenuates Compound PC-2's ability to release hydromorphone, both with respect to suppressing Cmaxand delaying Tmax”. For the same molecule, the “Effect of SBTI on Compound PC-3's ability to release hydromorphone” value ([6]; rats PO, PC-3 20 mg/kg with 500 mg/kg SBTI) was “attenuates Compound PC-3's ability to release hydromorphone, both with respect to suppressing Cmaxand delaying Tmax”, the “Effect of SBTI on Compound PC-4's ability to release hydromorphone” value ([8]; rats PO, PC-4 20 mg/kg with 500 mg/kg SBTI) was “attenuates Compound PC-4's ability to release hydromorphone, at least with respect to delaying Tmax” and the IC50 (trypsin) was 0.27 µM.
